# Reference: PMC4542539, “The Multiple DSF-family QS Signals are Synthesized from Carbohydrate and Branched-chain Amino Acids via the FAS Elongation Cycle” (Scientific Reports, 2015)
# Target: RpfF (Xanthomonas campestris, UniProt Q7CLS3)
# Experiment: HPLC and LC-MS of product formed by purified His-tagged RpfF
# Type: biochemical
# Details: formed from 3-hydroxydodecanoyl-ACP (dehydratase and thioesterase); Tris-HCl pH 7.5, ATP, Mg2+, Vibrio harveyi AasS; 37 °C, 30 min
# RpfF, sequence (Q7CLS3 entry or part of it): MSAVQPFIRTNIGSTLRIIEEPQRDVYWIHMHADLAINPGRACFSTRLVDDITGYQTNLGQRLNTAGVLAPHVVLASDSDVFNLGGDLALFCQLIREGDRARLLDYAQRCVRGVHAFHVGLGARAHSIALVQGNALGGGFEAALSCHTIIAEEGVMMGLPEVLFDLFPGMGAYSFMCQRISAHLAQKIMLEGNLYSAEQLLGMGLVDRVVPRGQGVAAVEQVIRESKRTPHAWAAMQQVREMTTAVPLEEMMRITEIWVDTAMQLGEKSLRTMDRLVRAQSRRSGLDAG
compound,measurement,value
"CCCCCCCCC/C=C\C(=O)O [BDSF, cis-2-dodecenoic acid]",HPLC and LC-MS of product formed by purified His-tagged RpfF,detected in the reaction mixture containing RpfF and 3-OH-C12:0-ACP
